Laboratory results taken from patent US11912710B2 (UPPTHERA, INC., priority 2021, dated 2024).

How the values were obtained:
Assay type in all cases: cell-based
PLK1 = target: T1, PLK1 (Homo sapiens, UniProt P53350); test: Luciferase assay for PLK1 in HeLa LgBit (Plk1-HiBit KI) cell line; conditions: 300 nM compound, luminescence after 9 hours, read-out: Activity: ratio of the luminescense value of compound treatment group to DMSO treatment group
T1 construct: endogenous in cells; host or cells: HeLa LgBit (Plk1-HiBit KI): HeLa cells stably expressing LgBit, with HiBit knocked into the endogenous Plk1 locus by CRISPR/Cas9
Method: 2. Luciferase Assay for PLK1
(1) Preparation and Culture of HeLa LgBit (Plk1-HiBit KI) Cell Line
A HeLa cell line in which the LgBit vector was transfected and expressed stably was prepared. Then, after constructing gRNA and donor to express the HiBit amino acid sequence behind the C-terminal of the Plk1 gene, which was inherent in the cell, it was inserted into the cell together with a vector capable of expressing CRISPR/Cas9. Only the cells in which the insertion was completed and knock-in had progressed were selected, sub-cultured and used.
(2) Treatment of Compounds of the Present Invention and Method of Luciferase Assay
In the case of HeLa LgBit (Plk1-HiBit KI), the compounds were treated after being released after thymidine block, and the process was as follows. Thymidine (Sigma-Aldrich Cat. No. T9250-5G) was completely dissolved in DW and used in the experiment. For thymidine block, the products were treated with 2 mM of thymidine and then incubated for 24 hours. For release and chemical treatment, the medium was suctioned and washed with 1×PBS. TrypLE™ was added and incubated in 37° C. CO2 incubator for 5 min. Cells neutralized by adding complete media were counted through a counter. For each well of a 96-well culture plate (SPL), 3.3×10^4 cells and a total medium volume of 150 μL were seeded and incubated in a CO2 incubator.
Each cell line was incubated in a CO2 incubator for 18 hours, and Endurazine was added to each well to make up 4% of the total volume. After adding the compound of the present invention in a 96-well white plate (SPL) to a concentration of 300 nM, the wavelength of the plate reader (BMG Labtech, CLARIOstar Plus) was set to […], and then the luminescence was tracked in real time.
In Table 2, Activity represents the ratio of the luminescense value of each Exemplary Compound treatment group to DMSO treatment group (+++: <0.3, ++<0.6, +<0.7).

NCI-H526 cell line = test: Cell viability assay for H526 cell line; conditions: Homo sapiens, NCI-H526, 120 h; H526 cells, 5 days, EZ-Cytox, 3000 nM to 0.46 nM
Method: 3. Cell Viability Assay for H526 Cell Line
(1) Culture of NCI-H526 Cell Line
(2) Treatment of Compounds of the Present Invention and Method of Cell Viability Assay
After treating the compound to each well to make the total volume of 200 μL, it was cultured in a CO2 incubator (Thermo Fisher Science, Cat. No. 4111) for 5 days.
The absorbance of the completely cultured sample was measured by setting the wavelength of a plate reader (BMG Labtech, CLARIOstar Plus) to […], and was measured after shaking for 3 minutes in a plate reader before measurement.
In Table 3, Activity represents IC50 value of each Exemplary Compound treatment group to H526 cell line (A: <30 nM, B: <50 nM, C: <100 nM, D: <200 nM, E: <400 nM).

MRC-5 cell line = test: Cell viability assay (cytotoxicity) for MRC-5 cell line; conditions: Homo sapiens, MRC5, 120 h; MRC-5 normal cell line, 5 days, EZ-Cytox, 10000 nM to 1.52 nM; read-out: Activity: IC50 value to MRC-5 cell line (Exemplary Compounds)
Method: 4. Cell Viability Assay for MRC-5 Cell Line
(1) Culture of MRC-5 Cell Line
Passage of cultured cells was maintained within P15.
(2) Treatment of Compounds of the Present Invention
Then, it was cultured in 37° C.
(3) Cytotoxicity Experiment
CO2 incubator for 4 hours.
Cell Viability Assay for MRC-5 cell line

T1 sequence (P53350 whole entry): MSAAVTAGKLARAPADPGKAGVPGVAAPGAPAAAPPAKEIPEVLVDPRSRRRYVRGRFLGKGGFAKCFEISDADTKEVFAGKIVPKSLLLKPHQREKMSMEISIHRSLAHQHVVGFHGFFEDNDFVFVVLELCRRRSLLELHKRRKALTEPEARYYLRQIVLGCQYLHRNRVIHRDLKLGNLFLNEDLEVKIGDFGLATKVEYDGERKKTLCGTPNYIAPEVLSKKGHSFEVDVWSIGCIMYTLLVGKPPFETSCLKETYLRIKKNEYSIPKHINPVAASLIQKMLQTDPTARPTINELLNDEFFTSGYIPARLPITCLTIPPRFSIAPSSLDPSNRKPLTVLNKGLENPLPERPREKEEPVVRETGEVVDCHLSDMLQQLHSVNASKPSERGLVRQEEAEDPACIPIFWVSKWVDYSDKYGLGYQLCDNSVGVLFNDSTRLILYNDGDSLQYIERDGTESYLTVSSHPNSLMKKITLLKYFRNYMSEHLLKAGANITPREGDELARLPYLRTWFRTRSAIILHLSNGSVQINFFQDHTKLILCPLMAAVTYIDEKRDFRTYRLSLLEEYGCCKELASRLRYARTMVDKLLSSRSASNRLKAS

SMILES	remaining activity at 0.3 µM (PLK1)	IC50 (NCI-H526 cell line)	IC50 (MRC-5 cell line)
COc1cc(C(=O)NC2CCN(C(=O)CC3CCN(c4ccc(C5CCC(=O)NC5=O)cc4F)CC3)CC2)ccc1Nc1ncc2c(n1)N(C1CCCC1)CC(F)(F)C(=O)N2C (stereo not drawn) [Compound 10, 4-((9-cyclopentyl-7,7-difluoro-5-methyl-6-oxo-6,7,8,9-tetrahydro-5H-pyrimido[4,5-b][1,4]diazepin-2-yl)amino)-N-(1-(2-(1-(4-(2,6-dioxopiperidin-3-yl)-2-fluorophenyl)piperidin-4-yl)acetyl)piperidin-4-yl)-3-methoxybenzamide]	< 30%	< 0.05 µM	> 10 µM
COc1cc(C(=O)NC2CCN(C(=O)CCN3CCN(c4ccc(C5CCC(=O)NC5=O)cc4F)CC3)CC2)ccc1Nc1ncc2c(n1)N(C1CCCC1)CC(F)(F)C(=O)N2C (stereo not drawn) [Compound 11, 4-((9-cyclopentyl-7,7-difluoro-5-methyl-6-oxo-6,7,8,9-tetrahydro-5H-pyrimido[4,5-b][1,4]diazepin-2-yl)amino)-N-(1-(3-(4-(4-(2,6-dioxopiperidin-3-yl)-2-fluorophenyl)piperazin-1-yl)propanoyl)piperidin-4-yl)-3-methoxybenzamide]	< 30%	< 0.03 µM	> 10 µM
COc1cc(C(=O)NN2CCC(CCN3CCN(c4ccc(C5CCC(=O)NC5=O)cc4F)CC3)CC2)ccc1Nc1ncc2c(n1)N(C1CCCC1)CC(F)(F)C(=O)N2C (stereo not drawn) [Compound 12, 4-((9-cyclopentyl-7,7-difluoro-5-methyl-6-oxo-6,7,8,9-tetrahydro-5H-pyrimido[4,5-b][1,4]diazepin-2-yl)amino)-N-(4-(2-(4-(4-(2,6-dioxopiperidin-3-yl)-2-fluorophenyl)piperazin-1-yl)ethyl)piperidin-1-yl)-3-methoxybenzamide]	< 30%	< 0.03 µM	20 µM
COc1cc(C(=O)NC2CCCN(C(=O)CN3CCN(c4ccc(C5CCC(=O)NC5=O)cc4F)CC3)C2)ccc1Nc1ncc2c(n1)N(C1CCCC1)CC(F)(F)C(=O)N2C (stereo not drawn) [Compound 13, 4-((9-cyclopentyl-7,7-difluoro-5-methyl-6-oxo-6,7,8,9-tetrahydro-5H-pyrimido[4,5-b][1,4]diazepin-2-yl)amino)-N-(1-(2-(4-(4-(2,6-dioxopiperidin-3-yl)-2-fluorophenyl)piperazin-1-yl)acetyl)piperidin-3-yl)-3-methoxybenzamide]	< 60%	< 0.05 µM	> 10 µM
COc1cc(C(=O)NC2CCCN(C(=O)CCN3CCN(c4ccc(C5CCC(=O)NC5=O)cc4F)CC3)C2)ccc1Nc1ncc2c(n1)N(C1CCCC1)CC(F)(F)C(=O)N2C (stereo not drawn) [Compound 14, 4-((9-cyclopentyl-7,7-difluoro-5-methyl-6-oxo-6,7,8,9-tetrahydro-5H-pyrimido[4,5-b][1,4]diazepin-2-yl)amino)-N-(1-(3-(4-(4-(2,6-dioxopiperidin-3-yl)-2-fluorophenyl)piperazin-1-yl)propanoyl)piperidin-3-yl)-3-methoxybenzamide]	< 60%	< 0.1 µM	> 10 µM
COc1cc(C(=O)NC2CC3(CCN(CC4CCN(c5ccc(C6CCC(=O)NC6=O)cc5F)CC4)CC3)C2)ccc1Nc1ncc2c(n1)N(C1CCCC1)CC(F)(F)C(=O)N2C (stereo not drawn) [Compound 15, 4-((9-cyclopentyl-7,7-difluoro-5-methyl-6-oxo-6,7,8,9-tetrahydro-5H-pyrimido[4,5-b][1,4]diazepin-2-yl)amino)-N-(7-((1-(4-(2,6-dioxopiperidin-3-yl)-2-fluorophenyl)piperidin-4-yl)methyl)-7-azaspiro[3.5]nonan-2-yl)-3-methoxybenzamide]	< 30%	< 0.03 µM	> 10 µM
COc1cc(C(=O)NC2CC3(CCN(CC4CCN(c5ccc(C6CCC(=O)NC6=O)cc5)CC4)CC3)C2)ccc1Nc1ncc2c(n1)N(C1CCCC1)CC(F)(F)C(=O)N2C (stereo not drawn) [Compound 16, 4-((9-cyclopentyl-7,7-difluoro-5-methyl-6-oxo-6,7,8,9-tetrahydro-5H-pyrimido[4,5-b][1,4]diazepin-2-yl)amino)-N-(7-((1-(4-(2,6-dioxopiperidin-3-yl)phenyl)piperidin-4-yl)methyl)-7-azaspiro[3.5]nonan-2-yl)-3-methoxybenzamide]	< 30%	< 0.03 µM	9.12 µM
COc1cc(C(=O)NN2CCC([C@@H](C)CN3CCN(c4ccc(C5CCC(=O)NC5=O)cc4F)CC3)CC2)ccc1Nc1ncc2c(n1)N(C1CCCC1)CC(F)(F)C(=O)N2C (stereo partly drawn) [Compound 19, 4-((9-cyclopentyl-7,7-difluoro-5-methyl-6-oxo-6,7,8,9-tetrahydro-5H-pyrimido[4,5-b][1,4]diazepin-2-yl)amino)-N-(4-((2R)-1-(4-(4-(2,6-dioxopiperidin-3-yl)-2-fluorophenyl)piperazin-1-yl)propan-2-yl)piperidin-1-yl)-3-methoxybenzamide]	< 30%	< 0.03 µM	> 10 µM
COc1cc(C(=O)NN2CCC([C@H](C)CN3CCN(c4ccc(C5CCC(=O)NC5=O)cc4F)CC3)CC2)ccc1Nc1ncc2c(n1)N(C1CCCC1)CC(F)(F)C(=O)N2C (stereo partly drawn) [Compound 20, 4-((9-cyclopentyl-7,7-difluoro-5-methyl-6-oxo-6,7,8,9-tetrahydro-5H-pyrimido[4,5-b][1,4]diazepin-2-yl)amino)-N-(4-((2S)-1-(4-(4-(2,6-dioxopiperidin-3-yl)-2-fluorophenyl)piperazin-1-yl)propan-2-yl)piperidin-1-yl)-3-methoxybenzamide]	< 30%	< 0.05 µM	> 10 µM
COc1cc(C(=O)NC2CCN(CC3CC4(CCN(c5ccc(C6CCC(=O)NC6=O)cc5F)CC4)C3)CC2)ccc1Nc1ncc2c(n1)N(C1CCCC1)CC(F)(F)C(=O)N2C (stereo not drawn) [Compound 21, 4-((9-cyclopentyl-7,7-difluoro-5-methyl-6-oxo-6,7,8,9-tetrahydro-5H-pyrimido[4,5-b][1,4]diazepin-2-yl)amino)-N-(1-((7-(4-(2,6-dioxopiperidin-3-yl)-2-fluorophenyl)-7-azaspiro[3.5]nonan-2-yl)methyl)piperidin-4-yl)-3-methoxybenzamide]	< 30%	< 0.05 µM	> 10 µM
COc1cc(C(=O)NCC2CCN(CC3CCN(c4ccc(C5CCC(=O)NC5=O)cc4F)CC3)CC2)ccc1Nc1ncc2c(n1)N(C1CCCC1)CC(F)(F)C(=O)N2C (stereo not drawn) [Compound 22, 4-((9-cyclopentyl-7,7-difluoro-5-methyl-6-oxo-6,7,8,9-tetrahydro-5H-pyrimido[4,5-b][1,4]diazepin-2-yl)amino)-N-((1-((1-(4-(2,6-dioxopiperidin-3-yl)-2-fluorophenyl)piperidin-4-yl)methyl)piperidin-4-yl)methyl)-3-methoxybenzamide]	< 30%	< 0.03 µM	> 10 µM
COc1cc(C(=O)NCC2CC23CCN(CC2CCN(c4ccc(C5CCC(=O)NC5=O)cc4F)CC2)CC3)ccc1Nc1ncc2c(n1)N(C1CCCC1)CC(F)(F)C(=O)N2C (stereo not drawn) [Compound 24, 4-((9-cyclopentyl-7,7-difluoro-5-methyl-6-oxo-6,7,8,9-tetrahydro-5H-pyrimido[4,5-b][1,4]diazepin-2-yl)amino)-N-((6-((1-(4-(2,6-dioxopiperidin-3-yl)-2-fluorophenyl)piperidin-4-yl)methyl)-6-azaspiro[2.5]octan-1-yl)methyl)-3-methoxybenzamide]	< 30%	< 0.05 µM	> 10 µM
